Measured values reported in patent US20250163104A1, “MACROCYCLIC IMMUNOMODULATORS” (priority 2021, published 2025).
Where a SMILES comes first, the peptide text is derived from it. Bridges are numbered along the chain shown (N, C = ends). [ ]: non-standard residue; d: D form. The star is where a group is joined. Phe(4-COOH) = N[C@@H](Cc1ccc(C(=O)O)cc1)C(=O)O; Bip = N[C@@H](Cc1ccc(-c2ccccc2)cc1)C(=O)O; Phe(3-OMe) = COc1cccc(C[C@H](N)C(=O)O)c1; Phe(4-Cl) = N[C@@H](Cc1ccc(Cl)cc1)C(=O)O; Phe(3-Me) = Cc1cccc(C[C@H](N)C(=O)O)c1; Val(3-OH) = CC(C)(O)[C@H](N)C(=O)O; 3Thi = N[C@@H](Cc1ccsc1)C(=O)O; Cha = N[C@@H](CC1CCCCC1)C(=O)O; Cit = NC(=O)NCCC[C@H](N)C(=O)O; Carboxymethyl = O=C(O)C*; Orn = NCCC[C@H](N)C(=O)O; Pra = C#CC[C@H](N)C(=O)O; Dab = NCC[C@H](N)C(=O)O; Dap = NC[C@H](N)C(=O)O

target: T1, human PD-1 / PD-L1-Ig binding on Jurkat cell line over-expressing human PD-1 (Jurkat-PD-1) (Homo sapiens, UniProt Q15116); assay: Jurkat-PD-1 Cell Binding High-Content Screening Assay (CBA); type: cell-based; settings: Jurkat HPD1_PDL1 IC50, Jurkat-PD-1 cells, PE-labeled PD-L1-Ig 20 nM final
T1 construct: expressed in transfected cells; host or cells: Jurkat
T1 sequence (Q15116 25-288): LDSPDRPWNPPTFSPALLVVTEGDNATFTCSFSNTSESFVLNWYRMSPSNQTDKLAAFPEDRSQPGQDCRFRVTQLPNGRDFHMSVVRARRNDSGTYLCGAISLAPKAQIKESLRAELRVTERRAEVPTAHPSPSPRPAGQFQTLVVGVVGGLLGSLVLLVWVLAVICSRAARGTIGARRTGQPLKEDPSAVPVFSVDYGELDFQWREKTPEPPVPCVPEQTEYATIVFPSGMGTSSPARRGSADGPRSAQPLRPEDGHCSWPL
Method in brief: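 Compounds were preincubated with Jurkat-hPD-1 cells in DMEM plus 10% fetal calf serum for 2 h at 37° C. Phycoerythrin-labeled PD-L1-Ig (20 nM final) was then added for 1 hour. Cells were fixed in 4% paraformaldehyde with Hoechst 33342, and bound fluorescence was quantified by high-content imaging.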

Row | SMILES | IC50
1 | CC(C)C[C@H]1NC(=O)[C@H](CCCN)NC(=O)[C@H](CCCNC(N)=O)NC(=O)[C@H](Cc2ccc(-c3ccccc3)cc2)NC(=O)[C@H](C(C)C)NC(=O)[C@H](Cc2c[nH]c3ccccc23)NC(=O)[C@H](CC(=O)O)NC(=O)[C@H](Cc2ccc(C(=O)O)cc2)NC(=O)[C@H](Cc2ccc(OCC(=O)O)cc2)NC(=O)CSC[C@@H](C(=O)N[C@@H](C)C(N)=O)NC(=O)[C@H]([C@@H](C)O)NC(=O)[C@H](C(C)C)NC(=O)[C@H](Cc2ccccc2)NC(=O)[C@H](CCN)NC1=O [Compound 1664] ({CH2CO}-Y(Carboxymethyl)[Phe(4-COOH)]DWV[Bip][Cit][Orn][dL][Dab]FVTCA-NH2; thioether N-14) | 36.3 nM
2 | CC(C)C[C@H]1NC(=O)[C@H](CCCN)NC(=O)[C@H](CCCNC(N)=O)NC(=O)[C@H](Cc2ccc(-c3ccccc3)cc2)NC(=O)[C@H](C(C)C)NC(=O)[C@H](Cc2c[nH]c3ccccc23)NC(=O)[C@H](CC(=O)O)NC(=O)[C@H](Cc2ccc(OCC(=O)O)cc2)NC(=O)[C@H](Cc2ccncc2)NC(=O)CSC[C@@H](C(=O)N[C@@H](C)C(N)=O)NC(=O)[C@H]([C@@H](C)O)NC(=O)[C@H](C(C)C)NC(=O)[C@H](CC2CCCCC2)NC(=O)[C@H](Cc2c[nH]cn2)NC1=O [Compound 1610] | 21.5 nM
3 | CC(C)C[C@H]1NC(=O)[C@H](CCCN)NC(=O)[C@H](C(C)C)NC(=O)[C@H](Cc2ccc(-c3ccccc3)cc2)NC(=O)[C@H](C(C)C)NC(=O)[C@H](Cc2c[nH]c3ccccc23)NC(=O)[C@H](CC(=O)O)NC(=O)[C@H](Cc2ccc(OCC(=O)O)cc2)NC(=O)[C@H](Cc2ccc(OCC(=O)O)cc2)NC(=O)CSC[C@@H](C(=O)N[C@@H](C)C(N)=O)NC(=O)[C@H]([C@@H](C)O)NC(=O)[C@H](C(C)C)NC(=O)[C@H](CC2CCCCC2)NC(=O)[C@H](Cc2c[nH]cn2)NC1=O [Compound 1591] | 17.9 nM

same assay, conditions: Jurkat-PD-1 cells, PE-labeled PD-L1-Ig 20 nM final; read-out: Jurkat HPD1_PDL1 IC50

Row | IC50 | SMILES
4 | 5.2 nM | C#CC[C@H](NC(=O)[C@H](CCN)NC(=O)[C@@H]1CSCC(=O)N[C@@H](CCN)C(=O)N[C@@H](Cc2ccc(C(=O)O)cc2)C(=O)N[C@@H](CC(=O)O)C(=O)N[C@@H](Cc2cccc(C)c2)C(=O)N[C@@H](Cc2ccc(C(=O)O)cc2)C(=O)N[C@@H](Cc2ccc(-c3ccccc3)cc2)C(=O)N[C@@H](Cc2ccc(C(=O)O)cc2)C(=O)N[C@@H](CCCN)C(=O)N[C@H](CC(C)C)C(=O)N[C@@H](CCN)C(=O)N[C@@H](CC2CCCCC2)C(=O)N[C@@H](C(C)(C)O)C(=O)N[C@@H](CCCN)C(=O)N1)C(N)=O [Compound 1850] ({CH2CO}-[Dab][Phe(4-COOH)]D[Phe(3-Me)][Phe(4-COOH)][Bip][Phe(4-COOH)][Orn][dL][Dab][Cha][Val(3-OH)][Orn]C[Dab][Pra]-NH2; thioether N-14)
5 | 25.8 nM | CC(C)C[C@H]1NC(=O)[C@H](CCCN)NC(=O)[C@H](CCC(=O)O)NC(=O)[C@H](Cc2ccc(-c3ccccc3)cc2)NC(=O)[C@H](C(C)C)NC(=O)[C@H](Cc2cccc(C(F)(F)F)c2)NC(=O)[C@H](CC(=O)O)NC(=O)[C@H](Cc2ccc(O)cc2)NC(=O)[C@H](Cc2ccncc2)NC(=O)CSC[C@@H](C(=O)N[C@@H](C)C(N)=O)NC(=O)[C@H]([C@@H](C)O)NC(=O)[C@H](C(C)C)NC(=O)[C@H](CC2CCCCC2)NC(=O)[C@H](CCN)NC1=O [Compound 1464]
6 | 34.8 nM | CC(C)C[C@H]1NC(=O)[C@H](CCCN)NC(=O)[C@H](CCC(=O)O)NC(=O)[C@H](Cc2ccc(-c3ccccc3)cc2)NC(=O)[C@H](C(C)C)NC(=O)[C@H](Cc2c[nH]c3ccccc23)NC(=O)[C@H](CC(=O)O)NC(=O)[C@H](Cc2ccc(OCC(=O)O)cc2)NC(=O)[C@H](CN)NC(=O)CSC[C@@H](C(=O)N[C@@H](C)C(N)=O)NC(=O)[C@H]([C@@H](C)O)NC(=O)[C@H](C(C)C)NC(=O)[C@H](CC2CCCCC2)NC(=O)[C@H](CC(=O)O)NC1=O [Compound 1514] ({CH2CO}-[Dap]Y(Carboxymethyl)DWV[Bip]E[Orn][dL]D[Cha]VTCA-NH2; thioether N-14)
7 | 22.8 nM | CCC(C)[C@@H]1NC(=O)[C@H](Cc2ccc(-c3ccccc3)cc2)NC(=O)[C@H](C(C)C)NC(=O)[C@H](Cc2cccc(C)c2)NC(=O)[C@H](CC(=O)O)NC(=O)[C@H](Cc2cccnc2)NC(=O)[C@H](Cc2ccncc2)NC(=O)CSC[C@@H](C(=O)N[C@@H](C)C(N)=O)NC(=O)[C@H]([C@@H](C)O)NC(=O)[C@H](C(C)C)NC(=O)[C@H](CC2CCCCC2)NC(=O)[C@H](CCN)NC(=O)[C@@H](CC(C)C)NC(=O)[C@H](CCCN)NC1=O (some centres unmarked) [Compound 2237]
8 | 45.6 nM | CC(C)C[C@H]1NC(=O)[C@H](CCCN)NC(=O)[C@H](CCCNC(N)=O)NC(=O)[C@H](Cc2ccc(-c3ccccc3)cc2)NC(=O)[C@H](C(C)C)NC(=O)[C@H](Cc2c[nH]c3ccccc23)NC(=O)[C@H](CC(=O)O)NC(=O)[C@H](Cc2ccc(Cl)cc2)NC(=O)[C@H](CN)NC(=O)CSC[C@@H](C(=O)N[C@@H](C)C(N)=O)NC(=O)[C@H]([C@@H](C)O)NC(=O)[C@H](C(C)C)NC(=O)[C@H](CC2CCCCC2)NC(=O)[C@H](CCN)NC1=O [Compound 2102] ({CH2CO}-[Dap][Phe(4-Cl)]DWV[Bip][Cit][Orn][dL][Dab][Cha]VTCA-NH2; thioether N-14)
9 | 14.8 nM | Cc1cccc(C[C@@H]2NC(=O)[C@H](CC(=O)O)NC(=O)[C@H](Cc3ccc(OCC(=O)O)cc3)NC(=O)[C@H](CN)NC(=O)CSC[C@@H](C(=O)N[C@@H](C)C(=O)NCc3cnc(C)cn3)NC(=O)[C@H]([C@@H](C)O)NC(=O)[C@H](C(C)C)NC(=O)[C@H](CC3CCCCC3)NC(=O)[C@H](CCN)NC(=O)[C@@H](CC(C)C)NC(=O)[C@H](CCCN)NC(=O)[C@H](CCCNC(N)=O)NC(=O)[C@H](Cc3ccc(-c4ccccc4)cc3)NC(=O)[C@H](C(C)C)NC2=O)c1 [Compound 2006]
10 | 29.6 nM | COc1cccc(C[C@@H]2NC(=O)[C@H](CCN)NC(=O)[C@@H](CC(C)C)NC(=O)[C@H](CCCN)NC(=O)[C@H](CCC(=O)O)NC(=O)[C@H](Cc3ccc(-c4ccccc4)cc3)NC(=O)[C@H](C(C)C)NC(=O)[C@H](Cc3c[nH]c4ccccc34)NC(=O)[C@H](CC(=O)O)NC(=O)[C@H](Cc3ccc(OCC(=O)O)cc3)NC(=O)[C@H](CN)NC(=O)CSC[C@@H](C(=O)N[C@@H](C)C(N)=O)NC(=O)[C@H]([C@@H](C)O)NC(=O)[C@H](C(C)C)NC2=O)c1 [Compound 1469] ({CH2CO}-[Dap]Y(Carboxymethyl)DWV[Bip]E[Orn][dL][Dab][Phe(3-OMe)]VTCA-NH2; thioether N-14)
11 | 3.9 nM | Cc1cccc(C[C@@H]2NC(=O)[C@H](CC(=O)O)NC(=O)[C@H](Cc3ccc(C(=O)O)cc3)NC(=O)[C@H](Cc3ccsc3)NC(=O)CSC[C@@H](C(=O)N[C@@H](CCN)C(N)=O)NC(=O)[C@H](CO)NC(=O)[C@H](C(C)(C)O)NC(=O)[C@H](CC3CCCCC3)NC(=O)[C@H](CCN)NC(=O)[C@@H](CC(C)C)NC(=O)[C@H](CCCN)NC(=O)[C@H](Cc3ccc(C(=O)O)cc3)NC(=O)[C@H](Cc3ccc(-c4ccccc4)cc3)NC(=O)[C@H](Cc3ccc(OCC(=O)O)cc3)NC2=O)c1 [Compound 2660] ({CH2CO}-[3Thi][Phe(4-COOH)]D[Phe(3-Me)]Y(Carboxymethyl)[Bip][Phe(4-COOH)][Orn][dL][Dab][Cha][Val(3-OH)]SC[Dab]-NH2; thioether N-14)
